One assay deals with PRMT5/MEP50 (Homo sapiens, UniProt O14744). As to the kind of experiment: MTase-Glo methyl transferase assay, Method B (FL-Histone H2A, 1 µM MTA, 1 h pre-incubation). The assay is classed as biochemical. Further details: purchased Reaction Biology Corp RD-11-292. As to conditions: read-out: PRMT5 MTase Glo Ki (nM, Meth. B). An outline of the steps:
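PRMT5/MEP50 (4 nM) was pre-incubated 1 h with compound, 5 µM SAM and 1 µM MTA, then started with 2.5 µM FL-Histone H2A in Tris pH 8.0 buffer. After 20 h at room temperature, SAH was detected by MTase-Glo luminescence, and IC50/KI were fitted from dose-response curves.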

A further assay deals with HCT116 WT cells. Briefly: HCT116 proliferation assay, WT cells (CellTiter-Glo, 6 days). The assay is classed as cell-based. As to conditions: Homo sapiens, HCT-116, 144 h, read-out: Prolif_HCT116-WT IC50. Put shortly:
(§1)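 Seed cells in RPMI 1640 supplemented with 10% FBS and incubate overnight at 37° C under 5% CO2. Treat with serially diluted compound (threefold steps, 8 or 9 points, highest 1 or 10 µM) or DMSO alone, then quantify viability by luminescence.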

A further assay concerns HCT116 MTAP null cells. As to the kind of experiment: HCT116 proliferation assay, MTAP null cells (CellTiter-Glo, 6 days). The assay is classed as cell-based. The settings on record: 144 h, read-out: Protif_ HCT116-MTAP null IC50. An outline of the steps: as §1

Where two headings read alike, the source gives them in different places.

PRMT5/MEP50, sequence (O14744 2-637 limits assumed): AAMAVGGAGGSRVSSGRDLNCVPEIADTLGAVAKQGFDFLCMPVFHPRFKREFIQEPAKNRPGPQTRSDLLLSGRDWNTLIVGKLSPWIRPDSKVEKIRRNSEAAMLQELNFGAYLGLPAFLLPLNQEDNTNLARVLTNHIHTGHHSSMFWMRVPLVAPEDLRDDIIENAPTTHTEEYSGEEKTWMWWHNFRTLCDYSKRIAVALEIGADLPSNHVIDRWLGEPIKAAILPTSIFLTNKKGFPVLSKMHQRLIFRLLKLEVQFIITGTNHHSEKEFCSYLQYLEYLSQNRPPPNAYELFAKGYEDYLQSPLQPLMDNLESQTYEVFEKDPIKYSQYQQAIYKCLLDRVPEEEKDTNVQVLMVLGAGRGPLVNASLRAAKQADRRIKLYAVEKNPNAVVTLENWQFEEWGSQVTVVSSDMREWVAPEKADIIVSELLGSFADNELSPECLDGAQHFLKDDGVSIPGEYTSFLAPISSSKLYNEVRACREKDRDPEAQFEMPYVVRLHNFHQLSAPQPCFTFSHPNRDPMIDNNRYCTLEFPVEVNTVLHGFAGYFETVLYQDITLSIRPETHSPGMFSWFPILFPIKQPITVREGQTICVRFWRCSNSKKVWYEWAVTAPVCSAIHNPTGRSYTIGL
PRMT5/MEP50, sequence (Q9BQA1 2-342 partner limits assumed): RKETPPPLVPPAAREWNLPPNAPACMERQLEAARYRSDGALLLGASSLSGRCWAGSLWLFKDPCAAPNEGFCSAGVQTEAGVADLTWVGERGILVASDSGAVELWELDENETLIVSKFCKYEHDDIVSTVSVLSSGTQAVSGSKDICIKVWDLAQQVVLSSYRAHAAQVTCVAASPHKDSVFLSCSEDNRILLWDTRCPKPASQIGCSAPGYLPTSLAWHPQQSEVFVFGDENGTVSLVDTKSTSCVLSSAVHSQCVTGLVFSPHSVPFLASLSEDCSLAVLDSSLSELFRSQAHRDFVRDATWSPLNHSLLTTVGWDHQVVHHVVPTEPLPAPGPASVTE

What is called Ki is a dissociation constant, usually derived from enzyme kinetics or from competition with a known ligand. Usually IC50 stands for the midpoint of a concentration-inhibition curve. As to `Cc1cc2cc(C(=O)N(Cc3ccc(N4CCC(C(N)=O)CC4)cc3)Cc3scnc3C)ccc2nc1N` [Example 572, 2-amino-N-(4-(4-carbamoylpiperidin-1-yl)benzyl)-3-methyl-N-((4-methylthiazol-5-yl)methyl)quinoline-6-carboxamide], the Ki at PRMT5/MEP50 came out at 3.48 nM. The IC50 with HCT116 WT cells was more than 10000 nM; with HCT116 MTAP null cells (HCT116-MTAP null) it was 608 nM.

As to `Cc1cc2cc(C(=O)N(Cc3ccc(C(F)(F)F)cn3)CC(C)C3CC3)ccc2nc1N` (stereo not drawn) [Example 575, 2-amino-N-(2-cyclopropylpropyl)-3-methyl-N-((5-(trifluoromethyl)pyridin-2-yl)methyl)quinoline-6-carboxamide], the Ki at PRMT5/MEP50 is 2.89 nM. Moreover, the IC50 in the assay on HCT116 WT cells was more than 1000 nM; with HCT116 MTAP null cells (HCT116-MTAP null), 78 nM.

Consider `Cc1cc2cc(C(=O)N(CCc3ncon3)Cc3ccc(C(F)(F)F)cn3)ccc2nc1N` [Example 576, N-(2-(1,2,4-oxadiazol-3-yl)ethyl)-2-amino-3-methyl-N-((5-(trifluoromethyl)pyridin-2-yl)methyl)quinoline-6-carboxamide], for which the Ki at PRMT5/MEP50 is 5.89 nM. The IC50 with HCT116 WT cells is more than 10000 nM; with HCT116 MTAP null cells (HCT116-MTAP null), 749 nM.

In the case of `Cc1cc2cc(C(=O)N(Cc3ccc(C(F)(F)F)cn3)CC3(C#N)CC3)ccc2nc1N` [Example 577, 2-amino-N-((1-cyanocyclopropyl)methyl)-3-methyl-N-((5-(trifluoromethyl)pyridin-2-yl)methyl)quinoline-6-carboxamide], on PRMT5/MEP50, the Ki came out at 3.89 nM. Also, the IC50 in the assay on HCT116 WT cells came to 6650 nM; in the assay with HCT116 MTAP null cells (HCT116-MTAP null), 159 nM.

Take `Cc1cc2cc(C(=O)N(Cc3ccc(C(F)(F)F)cn3)Cc3c(C)c4ccccc4n3C)ccc2nc1N` [Example 578, 2-amino-N-((1,3-dimethyl-1H-indol-2-yl)methyl)-3-methyl-N-((5-(trifluoromethyl)pyridin-2-yl)methyl)quinoline-6-carboxamide]: on PRMT5/MEP50, the Ki was determined as 15.4 nM. Moreover, the figures for the IC50 in the assay with HCT116 WT cells and with HCT116 MTAP null cells (HCT116-MTAP null) were 5090 nM and 859 nM, respectively.

As for `Cc1cc2cc(C(=O)N(Cc3ccc(C(F)(F)F)cn3)Cc3cocn3)ccc2nc1N` [Example 580, 2-amino-3-methyl-N-(oxazol-4-ylmethyl)-N-[[5-(trifluoromethyl)-2-pyridyl]methyl] quinoline-6-carboxamide], the inhibition constant (Ki) on PRMT5/MEP50 came out at 2.24 nM. Also, the IC50 came to 5600 nM with HCT116 WT cells and 110 nM with HCT116 MTAP null cells (HCT116-MTAP null).

On to `Cc1cc2c(nc1N)CCC(C(=O)N(Cc1ccc(C(F)(F)F)cn1)Cc1ccnc3[nH]ccc13)C2` (stereo not drawn) [Example 581, N-((1H-pyrrolo[2,3-b]pyridin-4-yl)methyl)-2-amino-3-methyl-N-((5-(trifluoromethyl)pyridin-2-yl)methyl)-5,6,7,8-tetrahydroquinoline-6-carboxamide], for which, at PRMT5/MEP50, the inhibition constant Ki stood at 16 nM. Also, the IC50 in the assay with HCT116 WT cells was more than 1000 nM; with HCT116 MTAP null cells (HCT116-MTAP null), 840 nM.

Consider `Cc1cc2cc(C(=O)N(Cc3cncc(F)c3)Cc3ccccc3F)ccc2nc1N` [Example 590, 2-amino-N-(2-fluorobenzyl)-N-((5-fluoropyridin-3-yl)methyl)-3-methylquinoline-6-carboxamide], for which the Ki at PRMT5/MEP50 is 14.9 nM. Besides, the IC50 in the assay on HCT116 WT cells is 6800 nM; in the assay with HCT116 MTAP null cells (HCT116-MTAP null), 921 nM.

For `Cc1cc2cc(C(=O)N(Cc3ccc(C(F)(F)F)cn3)CC(C)C(F)(F)F)ccc2nc1N` (stereo not drawn) [Example 591, 2-amino-3-methyl-N-(3,3,3-trifluoro-2-methylpropyl)-N-((5-(trifluoromethyl)pyridin-2-yl)methyl)quinoline-6-carboxamide], at PRMT5/MEP50, the Ki was determined as 16.5 nM. Besides, the IC50 with HCT116 WT cells is more than 1000 nM; in the assay with HCT116 MTAP null cells it was 456 nM.

For `Cc1cc2cc(C(=O)N(Cc3ccc(C(F)(F)F)cn3)C3COCc4ccccc43)ccc2nc1N` (stereo not drawn) [Example 593, 2-amino-N-(isochroman-4-yl)-3-methyl-N-((5-(trifluoromethyl)pyridin-2-yl)methyl)quinoline-6-carboxamide], the inhibitory constant (Ki) at PRMT5/MEP50 is 13.2 nM. Further, the values for the IC50 in the assay on HCT116 WT cells and with HCT116 MTAP null cells (HCT116-MTAP null) were more than 1000 nM and 185 nM, respectively.

Regarding `Cc1cc2cc(C(=O)N(Cc3ccc(C(F)(F)F)cn3)C3CC(C)(C)c4ccccc43)ccc2nc1N` (stereo not drawn) [Example 594, 2-amino-N-(3,3-dimethyl-2,3-dihydro-1H-inden-1-yl)-3-methyl-N-((5-(trifluoromethyl)pyridin-2-yl)methyl)quinoline-6-carboxamide], the Ki at PRMT5/MEP50 worked out at 26 nM. The concentration for half-maximal inhibition (IC50) is more than 1000 nM in the assay on HCT116 WT cells and 640 nM in the assay with HCT116 MTAP null cells (HCT116-MTAP null).

For the compound `Cc1cc2cc(C(=O)N(Cc3ccc(C(F)(F)F)cn3)C3CC(C)c4ccccc43)ccc2nc1N` (stereo not drawn) [Example 595, 2-amino-3-methyl-N-(3-methyl-2,3-dihydro-1H-inden-1-yl)-N-((5-(trifluoromethyl)pyridin-2-yl)methyl)quinoline-6-carboxamide], the Ki on PRMT5/MEP50 stood at 21.5 nM. Besides, the IC50 was 8200 nM with HCT116 WT cells and 990 nM in the assay with HCT116 MTAP null cells (HCT116-MTAP null).

Turning to `Cc1cc2cc(C(=O)N(Cc3ccc(C(F)(F)F)cn3)CC3CCOCC3C)ccc2nc1N` (stereo not drawn) [Example 596, 2-amino-3-methyl-N-((3-methyltetrahydro-2H-pyran-4-yl)methyl)-N-((5-(trifluoromethyl)pyridin-2-yl)methyl)quinoline-6-carboxamide], the inhibitory constant (Ki) on PRMT5/MEP50 came to 17.1 nM. Moreover, the IC50 in the assay with HCT116 WT cells is more than 10000 nM; with HCT116 MTAP null cells (HCT116-MTAP null), 352 nM.

With `Cc1cc2cc(C(=O)N(Cc3cncc(F)c3)Cc3ccc(C(F)(F)F)cn3)ccc2nc1N` [Example 597, 2-amino-N-((5-fluoropyridin-3-yl)methyl)-3-methyl-N-((5-(trifluoromethyl)pyridin-2-yl)methyl)quinoline-6-carboxamide], the Ki at PRMT5/MEP50 was 6.35 nM. For the same compound, the IC50 in the assay with HCT116 WT cells was more than 1000 nM; in the assay with HCT116 MTAP null cells (HCT116-MTAP null) it was 300 nM.

In the case of `Cc1cc2cc(C(=O)N(Cc3cnc4[nH]ccc4c3)Cc3ccc(C(F)(F)F)cn3)ccc2nc1N` [Example 598, 2-amino-3-methyl-N-(1H-pyrrolo [2,3-b]pyridin-5-ylmethyl)-N-[[5-(trifluoromethyl)-2-pyridyl]methyl]quinoline-6-carboxamide], at PRMT5/MEP50, the Ki came to 2.44 nM. The IC50 was more than 1000 nM with HCT116 WT cells and 180 nM in the assay on HCT116 MTAP null cells (HCT116-MTAP null).

Take `Cc1cc2cc(C(=O)N(Cc3ccc(C(F)(F)F)cn3)Cc3cc4c([nH]c3=O)CCC4)ccc2nc1N` [Example 599, 2-amino-3-methyl-N-[(2-oxo-1,5,6,7-tetrahydrocyclopenta[b]pyridin-3-yl)methyl]-N-[[5-(trifluoromethyl)-2-pyridyl]methyl] quinoline-6-carboxamide]: at PRMT5/MEP50, the Ki turned out to be 3.12 nM. The IC50 in the assay with HCT116 WT cells is more than 1000 nM; in the assay with HCT116 MTAP null cells (HCT116-MTAP null), 280 nM.

Take `Cc1cc2cc(C(=O)N(Cc3cccc(O)c3)Cc3ccc(C(F)(F)F)cn3)ccc2nc1N` [Example 600, 2-amino-N-[(3-hydroxyphenyl)methyl]-3-methyl-N-[[5-(trifluoromethyl)-2-pyridyl]methyl] quinoline-6-carboxamide]: the Ki at PRMT5/MEP50 was 1.83 nM. Further, the values for the IC50 with HCT116 WT cells and with HCT116 MTAP null cells (HCT116-MTAP null) were more than 1000 nM and 44 nM, respectively.

As for `Cc1cc2cc(C(=O)N(Cc3ccc(C(F)(F)F)cn3)[C@@H]3CCc4ccccc43)ccc2nc1N` [Example 601, 2-amino-N-[(1R)-indan-1-yl]-3-methyl-N-[[5-(trifluoromethyl)-2-pyridyl]methyl] quinoline-6-carboxamide], the Ki at PRMT5/MEP50 worked out at 1.78 nM. Further, the IC50 was determined as 820 nM with HCT116 WT cells and 38 nM in the assay with HCT116 MTAP null cells (HCT116-MTAP null).

Turning to `Cc1cc2cc(C(=O)N(Cc3ccc(C(F)(F)F)cn3)C3CCC(C)c4ccccc43)ccc2nc1N` (stereo not drawn) [Example 602, 2-amino-3-methyl-N-(4-methyl-1,2,3,4-tetrahydronaphthalen-1-yl)-N-((5-(trifluoromethyl)pyridin-2-yl)methyl)quinoline-6-carboxamide], at PRMT5/MEP50, the Ki was 7.26 nM. The IC50 in the assay on HCT116 WT cells was more than 1000 nM; with HCT116 MTAP null cells (HCT116-MTAP null) it was 85 nM.

`Cc1cc2cc(C(=O)N(Cc3ccc(C(F)(F)F)cn3)C3CCCc4[nH]ccc43)ccc2nc1N` (stereo not drawn) [Example 603, 2-amino-3-methyl-N-(4,5,6,7-tetrahydro-1H-indol-4-yl)-N-((5-(trifluoromethyl)pyridin-2-yl)methyl)quinoline-6-carboxamide]: at PRMT5/MEP50, the Ki turned out to be 23.7 nM. Besides, the values for the IC50 in the assay on HCT116 WT cells and in the assay with HCT116 MTAP null cells (HCT116-MTAP null) were more than 1500 nM and 317 nM, respectively.

For the compound `Cc1nc2c(s1)C(N(Cc1ccc(C(F)(F)F)cn1)C(=O)c1ccc3nc(N)c(C)cc3c1)CCC2` (stereo not drawn) [Example 604, 2-amino-3-methyl-N-(2-methyl-4,5,6,7-tetrahydrobenzo[d]thiazol-7-yl)-N-((5-(trifluoromethyl)pyridin-2-yl)methyl)quinoline-6-carboxamide], the Ki on PRMT5/MEP50 was 5.46 nM. Moreover, the IC50 was found to be 400 nM with HCT116 WT cells and 44 nM in the assay with HCT116 MTAP null cells (HCT116-MTAP null).

As for `Cc1cc2cc(C(=O)N(Cc3ccc(C(F)(F)F)cn3)C3CCCc4nn(C)cc43)ccc2nc1N` (stereo not drawn) [Example 605, 2-amino-3-methyl-N-(2-methyl-4,5,6,7-tetrahydro-2H-indazol-4-yl)-N-((5-(trifluoromethyl)pyridin-2-yl)methyl)quinoline-6-carboxamide], at PRMT5/MEP50, the Ki turned out to be 6.2 nM. Further, the figures for the 50% inhibitory concentration (IC50) with HCT116 WT cells and with HCT116 MTAP null cells (HCT116-MTAP null) were more than 1300 nM and 145 nM, respectively.

In the case of `Cc1cc2cc(C(=O)N(Cc3ccc(C(F)(F)F)cn3)C3CCCc4occc43)ccc2nc1N` (stereo not drawn) [Example 606, 2-amino-3-methyl-N-(4,5,6,7-tetrahydrobenzofuran-4-yl)-N-((5-(trifluoromethyl)pyridin-2-yl)methyl)quinoline-6-carboxamide], the Ki on PRMT5/MEP50 came to 2.9 nM. Moreover, the values for the IC50 in the assay with HCT116 WT cells and in the assay with HCT116 MTAP null cells (HCT116-MTAP null) were 280 nM and 27 nM, respectively.

The values are drawn from US20230159510A1, “NOVEL PRMT5 INHIBITORS” (AMGEN INC., priority 2020, published 2023).
